Values of other authors as cited in patent US6071925A (priority 1997, dated 2000).

Legend:
LC 132 receptor = conditions: CHO(LC 132+) cells in culture
mice [1] = conditions: intra-cerebroventricular
mice [2] = conditions: intra-cerebroventricular; remark: listed apart in the source

Q: What does the source list for “OFQ: seventeen amino-acid-long peptide (F-G-G-F-T-G-A-R-K-S-A-R-K-L-A-N-Q), natural ligand for the G-protein coupled receptor OFQ-R”?
A: effect on adenylate cyclase (LC 132 receptor): inhibits adenylate cyclase; effect on nociception (mice [1]): induces hyperalgesia; effect on locomotive activity (mice [2]): slowed down locomotive activity
